# Assay results published in ChEMBL document CHEMBL1201862, “PubChem BioAssay data set” (2004).
#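 Results reflect a 48-hour exposure of cells in 96-well plates to compound at five concentrations. The concentration for 50% growth inhibition is given as GI50.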 Activity calls are given as the source filed them. No stated cut-off is given here; in the data, active = GI50 up to about 1.1 µM and inactive = higher.
# Columns and labels:
# Experiment in all cases: NCI-60 cell line screen, 48 h
# [1] = tested on: DMS-114
# [2] = tested on: SK-MEL-28
# [3] = tested on: SNB-75
# [4] = tested on: M14
# [5] = tested on: SF-539
# [6] = tested on: NCI-H23
# [7] = tested on: RPMI-8226
# [8] = tested on: IGROV-1
# [9] = tested on: OVCAR-4
# [10] = tested on: SNB-78
# [11] = tested on: K562
# [12] = tested on: DLD-1
# [13] = tested on: HT-29
# [14] = tested on: NCI-H522
# [15] = tested on: M19-MEL
# [16] = tested on: KM12
# [17] = tested on: 786-0
# [18] = tested on: RXF 393
# [19] = tested on: OVCAR-8
# [20] = tested on: UACC-257
# [21] = tested on: UACC-62
# [22] = tested on: UO-31
# [23] = tested on: HCT-116
# [24] = tested on: CCRF-CEM
# [25] = tested on: COLO 205
# [26] = tested on: EKVX
# [27] = tested on: HCT-15
# [28] = tested on: XF498
# [29] = tested on: DMS-273
# [30] = tested on: A549
# [31] = tested on: SN12C
# [32] = tested on: NCI-H460
# [33] = tested on: LXFL 529
# [34] = tested on: HOP-92
# [35] = tested on: SK-MEL-5
# [36] = tested on: HL-60
# [37] = tested on: SK-OV-3
# [38] = tested on: LOX IMVI
# [39] = tested on: TK-10
# [40] = tested on: SK-MEL-2
# [41] = tested on: SF-295
# [42] = tested on: SW-620
# [43] = tested on: SR
# [44] = tested on: SF-268
# [45] = tested on: HOP-18
# [46] = tested on: HOP-62
# [47] = tested on: OVCAR-5
# [48] = tested on: ACHN
# [49] = tested on: CAKI-1
# [50] = tested on: U-251
# [51] = tested on: MOLT-4
# [52] = tested on: NCI-H226
# [53] = tested on: KM-20L2
# [54] = tested on: OVCAR-3
# [55] = tested on: Malme-3M
# [56] = tested on: SNB-19
# [57] = tested on: A498
compound,measurement,setting,value
O=CC1CCC=CC1NC(=O)OCc1ccccc1 (stereo not given),GI50,[1],22.7 µM (inactive)
same,GI50,[2],> 100 µM (inactive)
same,GI50,[3],29.2 µM (inactive)
same,GI50,[4],33.9 µM (inactive)
same,GI50,[5],23 µM (inactive)
same,GI50,[6],> 100 µM (inactive)
same,GI50,[7],40.5 µM (inactive)
same,GI50,[8],> 100 µM (inactive)
same,GI50,[9],94.6 µM (inactive)
same,GI50,[10],50 µM (inactive)
same,GI50,[11],4.68 µM (inactive)
same,GI50,[12],27.2 µM (inactive)
same,GI50,[13],51.4 µM (inactive)
same,GI50,[14],> 100 µM (inactive)
same,GI50,[15],41.8 µM (inactive)
same,GI50,[16],47 µM (inactive)
same,GI50,[17],33.8 µM (inactive)
same,GI50,[18],54.6 µM (inactive)
same,GI50,[19],22.7 µM (inactive)
same,GI50,[20],> 100 µM (inactive)
same,GI50,[21],42.5 µM (inactive)
same,GI50,[22],> 100 µM (inactive)
same,GI50,[23],19.1 µM (inactive)
same,GI50,[24],25.9 µM (inactive)
same,GI50,[25],> 100 µM (inactive)
same,GI50,[26],> 100 µM (inactive)
same,GI50,[27],54.8 µM
same,GI50,[28],44.2 µM (inactive)
same,GI50,[29],27.9 µM (inactive)
same,GI50,[30],> 100 µM (inactive)
same,GI50,[31],35 µM (inactive)
same,GI50,[32],59.3 µM (inactive)
same,GI50,[33],44.5 µM (inactive)
same,GI50,[34],99.5 µM (inactive)
same,GI50,[35],51.9 µM (inactive)
same,GI50,[36],7.14 µM (inactive)
same,GI50,[37],> 100 µM (inactive)
same,GI50,[38],48.4 µM (inactive)
same,GI50,[39],53.3 µM (inactive)
same,GI50,[40],38.5 µM (inactive)
same,GI50,[41],30.5 µM (inactive)
same,GI50,[42],37.2 µM (inactive)
same,GI50,[43],30.7 µM (inactive)
same,GI50,[44],85.5 µM (inactive)
same,GI50,[45],> 100 µM (inactive)
same,GI50,[46],> 100 µM (inactive)
same,GI50,[47],> 100 µM (inactive)
same,GI50,[48],> 100 µM (inactive)
same,GI50,[49],34.4 µM (inactive)
same,GI50,[50],57.5 µM (inactive)
same,GI50,[51],44.5 µM (inactive)
same,GI50,[52],> 100 µM (inactive)
CC(=O)OC1C2CCC1C1C2C2(Cl)C(Cl)=C(Cl)C1(Cl)C2(Cl)Cl (stereo not given),GI50,[1],12.6 µM (inactive)
same,GI50,[2],18.2 µM (inactive)
same,GI50,[3],14.7 µM (inactive)
same,GI50,[4],12.4 µM (inactive)
same,GI50,[5],16.6 µM (inactive)
same,GI50,[6],12.2 µM (inactive)
same,GI50,[7],6.05 µM (inactive)
same,GI50,[8],16.4 µM (inactive)
same,GI50,[9],19.7 µM (inactive)
same,GI50,[10],17.4 µM (inactive)
same,GI50,[12],15.1 µM (inactive)
same,GI50,[13],12.3 µM (inactive)
same,GI50,[14],12.3 µM (inactive)
same,GI50,[15],13.3 µM (inactive)
same,GI50,[16],13 µM (inactive)
same,GI50,[17],14.1 µM (inactive)
same,GI50,[18],15.1 µM (inactive)
same,GI50,[19],15.4 µM (inactive)
same,GI50,[20],13.2 µM (inactive)
same,GI50,[21],12.4 µM (inactive)
same,GI50,[22],12.5 µM (inactive)
same,GI50,[23],11.2 µM (inactive)
same,GI50,[25],15 µM (inactive)
same,GI50,[26],11.3 µM (inactive)
same,GI50,[28],11 µM (inactive)
same,GI50,[29],12.2 µM (inactive)
same,GI50,[53],10.1 µM (inactive)
same,GI50,[30],10.5 µM (inactive)
same,GI50,[31],15.1 µM (inactive)
same,GI50,[32],14.3 µM (inactive)
same,GI50,[33],12.5 µM (inactive)
same,GI50,[34],11.2 µM (inactive)
same,GI50,[35],13 µM (inactive)
same,GI50,[54],11.4 µM (inactive)
same,GI50,[37],16 µM (inactive)
same,GI50,[55],12.6 µM (inactive)
same,GI50,[56],15.1 µM (inactive)
same,GI50,[38],15.2 µM (inactive)
same,GI50,[39],15.3 µM (inactive)
same,GI50,[40],10.2 µM (inactive)
same,GI50,[41],11.3 µM (inactive)
same,GI50,[42],14.5 µM (inactive)
same,GI50,[43],9.95 µM (inactive)
same,GI50,[44],17.7 µM (inactive)
same,GI50,[45],18.9 µM (inactive)
same,GI50,[46],15.5 µM (inactive)
same,GI50,[47],11.1 µM (inactive)
same,GI50,[48],12.2 µM (inactive)
same,GI50,[49],13.8 µM (inactive)
same,GI50,[50],13.3 µM (inactive)
same,GI50,[51],11 µM (inactive)
same,GI50,[57],13.9 µM (inactive)
same,GI50,[52],13 µM (inactive)
